Results: patent US12624068B2, “Exon skipping by peptide nucleic acid derivatives” (OliPass Corporation, priority 2016, dated 2026)
[C(1O2)] = modified PNA monomer acting as cytosine, C(pOq) type, 1O2; [A(5)] = modified PNA monomer acting as adenine, A(p) type, p=5; [G(5)] = modified PNA monomer acting as guanine, G(p) type, p=5; [G(6)] = modified PNA monomer acting as guanine, G(p) type, p=6; {Fethoc} = N-terminal Fethoc cap; {NH2} = C-terminal amide

Legend:
human SCN9A pre-mRNA = assay: SCN9A nested PCR for exon skipping in PC3 cells; assay type: cell-based
Procedure: Given that PC3 cells are known to abundantly express the human SCN9A pre-mRNA [Br. J. Pharmacol. vol 156, 420-431 (2009)], “SCN-ASO 7” was evaluated by SCN9A nested PCR for its ability to induce the skipping of exon 4 in the human SCN9A pre-mRNA in PC3 cells as follows. [Cell Culture & ASO Treatment] PC3 cells (Cat. No. CRL-1435, ATCC) were maintained in Ham's F-12K medium supplemented with 10% FBS, 1% streptomycin/penicillin, 1% L-glutamine, and 1% sodium pyruvate under 5% CO2 atmosphere at 37° C. PC3 cells grown in 60 mm culture dish containing 5 mL medium were treated with “SCN-ASO 7” at 0 (negative control), 10, 100 or 1,000 zM. [RNA Extraction] Following an 18 hour incubation, the PC3 cells were treated with 100 μg/mL cycloheximide for another 6 hours in order to freeze the ribosomal translation. Then total RNA was extracted from cells using “Universal RNA Extraction Kit” (Cat. Number 9767, Takara) according to the manufacturer's instructions. [cDNA Synthesis by One Step RT-PCR] 200 ng of RNA template was used for a 25 μL reverse transcription reaction using Super Script® One-Step RT-PCR kit with Platinum® Taq polymerase (Cat. Number 10928-042, Invitrogen) and a set of exon-specific primers [SCN-exon 2_forward: (5'→3') […] NO: 74), and SCN-exon 9_reverse: (5'→3') […] [Nested PCR Amplification] 1 μL of cDNA solution (diluted by 100×) was subjected to a 20 μl PCR amplification by nested PCR (Cat. Number K2612, Bioneer) against a set of exon-specific primers [SCN-exon 3n_forward: (5'→3') […] NO: 76); and SCN-exon 8_reverse: (5'→3') […] Thus “SCN-exon 3n_forward” recognizes “the junction of exon 3 and exon 5” more selectively than “the junction of exon 3 and exon 4” found in the full length SCN9A mRNA. The primer sequence was designed to detect SCN9A splice variants lacking exon 4 more sensitively than the full length SCN9A mRNA. Such an exon skipping primer would be useful to detect mRNA splice variants having poor metabolic stability, since the full-length mRNA tends to show good metabolic stability gained through the evolution over billions years. [Identification of Exon Skipping Products] The nested PCR products were subjected to electrophoretic separation on a 2% agarose gel. The bands of target size were collected and analyzed by Sanger sequencing. […] “SCN-ASO 27” was evaluated for its ability to induce the skipping of “exon 4” in PC3 cells as described in “SCN9A Example 1”, unless noted otherwise. [Cell Culture & ASO Treatment] PC3 cells grown in 60 mm culture dish containing 5 mL culture medium were treated with “SCN-ASO 27” at 0 (negative control), 1, 10 or 100 zM. [Nested PCR Amplification] […] NO: 89); and SCN-exon 9n_reverse: (5'→3') […] “SCN-ASO 27” was evaluated for its ability to induce the skipping of “exon 4” in PC3 cells as described in “SCN9A Example 8”, unless noted otherwise. In this experiment, PC3 cells were treated with “SCN-ASO 27” at 0 (negative control), 1, 10, 100 and 1,000 aM for 24 hours. [Nested PCR Amplification] The nested PCR reaction was carried out against a set of primers of [SCN-exon 3/6_forward: (5'→3') […] NO: 91); and SCN-exon 9n_reverse: (5'→3') […]

10-mer complementary DNA = assay: Tm between PNA derivatives and 10-mer complementary DNA (N- or C-terminal); assay type: binding; details: uncorrected
Summary of the method: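 Tm read by UV at 260 nm for duplexes formed by annealing (90 °C for a minute, slow cooling to ambient) of equimolar 4 μM PNA and complementary 10-mer DNA targeting N- or C-terminal, in 10 mM sodium phosphate, 100 mM NaCl, pH 7.16.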

Row | Substance | SCN9A exon skipping by nested PCR (exon 3/6 junction primer) (human SCN9A pre-mRNA; PC3 cells, 1, 10, 100 and 1,000 aM, 24 hours) | SCN9A exon skipping by nested PCR (human SCN9A pre-mRNA; PC3 cells, 1, 10 or 100 zM) | PCR band intensity for the full-length SCN9A mRNA (human SCN9A pre-mRNA; PC3 cells, 10 zM and 100 zM) | Tm Value, 10-mer DNA against C-Terminal (10-mer complementary DNA) [°C] | Tm Value, 10-mer DNA against N-Terminal (10-mer complementary DNA) [°C] | skipping of SCN9A exon 4 by nested PCR (human SCN9A pre-mRNA; PC3 cells, 1 aM, 24 hours) | skipping of SCN9A exon 4 by nested PCR (human SCN9A pre-mRNA; PC3 cells, 10 and 100 zM, 24 hours)
1 | Fethoc-AA(5)G-TG(5)T-A(5)CC(1O2)-TA(5)A-A(5)C-NH2 (AAGTGTACCTAAAC; splice-switching; all peptide nucleic acid (PNA), [A(5)] at 2, 7, 11, 13, [G(5)] at 5, [C(1O2)] at 9, 5' {Fethoc}, 3' {NH2}; peptide nucleic acid written N to C) [SCN-ASO 27] | yielded a strong PCR band assignable to the skipping of exons 4-5 | yielded a strong PCR band assignable to the skipping of exons 4-5 | stronger in treatment samples of 10 zM and 100 zM ASO than in the samples of the negative control | 69.0 | 77.0 |  | 
2 | Fethoc-AC(1O2)T-TA(5)C-G(6)CA-A(5)AA(5)-AC(1O2)A-A(5)-NH2 (ACTTACGCAAAAACAA; all peptide nucleic acid (PNA), [C(1O2)] at 2, 14, [A(5)] at 5, 10, 12, 16, [G(6)] at 7, 5' {Fethoc}, 3' {NH2}; peptide nucleic acid written N to C) [SCN-ASO 7] |  |  |  | 64.6 | 65.0 | conspicuously strong | visible
